Experimental data taken from patent publication US20070015813A1, “Treatment of protein folding disorders” (QUEEN'S UNIVERSITY AT KINGSTON, priority 2005, published 2007).

Columns and labels:
[1] = biological target: T1, Aβ1-40 (Homo sapiens, UniProt P05067); assay: Kinetic Thioflavin T (ThT) aggregation assay of Aβ1-40; type: biochemical; conditions: for inhibition of Aβ1-40 aggregation, as measured by Thioflavin T (ThT) fluorescence: 20 μM Aβ1-40, 4 μM ThT, pH 7.4, 37° C., kinetic ThT assay
T1 construct: Aβ^1-40 (AnaSpec, San Jose, Calif., lots 14212, 34862 and 34889); purchased AnaSpec, San Jose, Calif
Protocol: Aβ^1-40 (1.0 mg) was pre-treated in a 1.5 mL microfuge tube with 1,1,1,3,3,3-hexafluoroisopropanol (HFIP, 1 mL) and sonicated for 20 min. to disassemble any pre-formed Aβ aggregates. The HFIP was removed with a stream of argon and the Aβ dissolved in Tris base (5.8 mL, 20 mM, pH 10.5). The pH was adjusted to 7.4 with concentrated HCl and the solution filtered using a syringe filter (0.2 μm). This solution was used for circular dichroism studies or diluted with an equal volume of 8 μM Thioflavin T (ThT) in Tris-HCl (20 mM, pH 7.4, 300 mM NaCl) for the ThT aggregation assay.
(§1) Aliquots (200 μL) of Aβ^1-40, Aβ^1-42, tau441 or α-synuclein with ThT or ThS were added to wells of a black polystyrene 96-well plate, followed by 2 μL of a compound in DMSO (various concentrations), or DMSO alone (controls). For α-synuclein, sodium dodecyl sulfate solution (2.0 μL, 30 mM) was also added to each well to induce aggregation. Incubations were performed in triplicate and were taken to contain 20 μM Aβ^1-40 or Aβ^1-42, 6 μM tau441 or 4 μM α-synuclein. Plates were covered with clear polystyrene lids and incubated at 37° C. in a GENios microplate reader obtained from Tecan Group Limited, Mannedorf, Zurich. For Aβ^1-40, tau441 and α-synuclein, fluorescence readings (λex=450 nm, λem=480 nm) were taken every 15 min., after first shaking at high intensity for 15 sec. and allowing to settle for 10 sec. before each reading. For Aβ^1-42, readings were taken every 5 min.
(§2) The absorbance of each compound was measured under the conditions used during testing, though on ten times the scale (2 mL), to ensure no significant quenching interfered with the assay. This step was also used to identify whether compounds were completely soluble under testing conditions.
FIG. 1 depicts the inhibition of Aβ^1-40 aggregation, as measured by Thioflavin T (ThT) fluorescence, by directly-linked 3,3′-bis-indolyl compounds 0c-i (A), other bis-indoles (B), aza-indole-containing compounds (C), indole-phenols (D), indole-5-carboxylic acid-containing bi-aromatics (E), and naphthol-containing bi-aromatics (F). Aggregation conditions: 20 μM Aβ^1-40 incubated in covered black 96-well polystyrene microplates with 4 μM ThT, pH 7.4, Tris-HCl (20 mM), 150 mM NaCl, 1% DMSO. Compound concentrations are 200 μM (A,B, except where otherwise noted), 100 μM (E), 20 μM (F), or as indicated (C,D). Plates heated at 37° C. in Tecan Genios microplate reader. All incubations performed in triplicate. Prior to experiment, Aβ^1-40 pretreated with 1,1,1,3,3,3-hexafluoroisopropanol (HFIP). Fluorescence readings: fluorescence measured every 15 min. (λex=450 nm, λem=480 nm) after shaking for 15 sec. and pausing 10 sec. before taking measurement. Values are the mean of three replicates. Error bars, omitted for clarity in (B), represent standard deviation of the mean.

[2] = biological target: T2, Aβ1-42 (Homo sapiens, UniProt P05067); assay: Kinetic Thioflavin T (ThT) aggregation assay of Aβ1-42; type: biochemical; conditions: 20 μM Aβ1-42, kinetic ThT assay
T2 construct: Aβ^1-42 (AnaSpec, lot 45685); purchased AnaSpec
Protocol: Aβ^1-42 (1.0 mg) was either pretreated with HFIP in the same manner as Aβ^1-40 or this step was omitted. After removing HFIP, when appropriate, Aβ^1-42 was dissolved in 1% NH3 (aq.) (200 μL) and sonicated for 1 min. The solution was diluted with Tris-HCl (5.7 mL, 20 mM, pH 7.4), the pH adjusted to 7.4 with concentrated HCl (aq.) and the solution filtered using a syringe filter (0.2 μm). Prior to use in the ThT aggregation assay, the solution was diluted with an equal volume of 8 μM Thioflavin T (ThT) in Tris-HCl (20 mM, pH 7.4, 300 mM NaCl).
as §1, §2
FIG. 7 depicts inhibition of Aβ^1-42 aggregation by various synthesized bi-aromatic compounds and positive controls morin (Ono K, Yoshiike Y, Takashima A, Hasegawa K, Naiki H, Yamada M. 2003. J Neurochem 87:172-81) and RS-0406 (Walsh D M, Townsend M, Podlisny M B, Shankar G M, Fadeeva J V, Agnaf O E, Hartley D M, Selkoe D J. 2005. J Neurosci 25:2455-62) in the kinetic ThT assay. Same conditions as for Aβ^1-40, FIG. 1. Compound concentrations were 100 μM in (A), 20 μM in (B), except for RS-0406, which was tested at 100 μM, and 20 μM in (C).

[3] = Colour on exposure to light and air (stability to oxidation); type: physicochemical; conditions: solid compounds, days or weeks
Protocol: The highly branched bridging groups of 1h,i,j provide additional molecular diversity to help identify favourable characteristics for compound activity against Aβ.

[4] = biological target: T3, tau441 (Homo sapiens, UniProt P10636); assay: Kinetic Thioflavin S (ThS) assay of tau441 aggregation; type: biochemical
T3 construct: (expression construct); host or cells: E. coli BL21 D3
Protocol: The tau441 expression construct [L Buee et al. (2000). Brain Research Reviews 33:95-130] was purchased (Bioclon Inc., San Diego, Calif.) already transformed in BL21 D3 bacterial cells (Novagen/EMD Biosciences) for protein expression. Cells were grown and induced with IPTG according to Novagen's protocol. To lyse cells, Cellytic B reagent (Sigma) was used with lysozyme protease inhibitors (Sigma) and benzonase (Novagen/EMD Biosciences), according to manufacturer's methods. Lysate was cleared by centrifugation for 20 min at 10,000 RPM (SS34 rotor, Sorvall RC2b centrifuge) at 4° C. Protein was purified from the soluble fraction. Once purified, tau441 was stored at −78° C. as frozen aliquots (8.3 mg/mL, 60 μL) in Tris-HCl (50 mM, pH 7.4) until used.
Frozen aliquots of tau441 (8.3 mg/mL, 60 μL) in Tris-HCl (50 mM, pH 7.4) were allowed to thaw at room temperature (RT) before being diluted with Tris-HCl (2.64 mL, 50 mM, pH 7.4) containing dithiothreitol (DTT, 1 mM) to prevent disulfide bonds and NaN3 (50 μM) to prevent bacterial growth. After allowing to stand at RT for 1 h, Thioflavin S (ThS) was added (2.5 μL, 10.8 mM), followed by the aggregation inducer heparin (20 μL, 1.08 g/mL).
as §1
Aggregation conditions: tau441 at a concentration of either 10 μM (A) or 4 μM (B,C,D,E) was incubated in covered black 96-well polystyrene microplates alone or with 100 (A) or 50 μM compound (B,C,D,E), 5 μM ThS, pH 7.4, Tris-HCl (50 mM) containing NaN3 (50 μM), and either 1% MeOH (A) or 1% DMSO (B,C,D,E). Plates were heated at 37° C. in a Tecan GENios microplate reader. All incubations performed in triplicate, except for compound 0c in (A), which had n=1. Fluorescence readings: fluorescence measured every 15 min. (λex=450 nm, λem=480 nm) after shaking for 15 sec. and pausing 10 sec. before taking measurement. Values are the mean of three replicates. Error bars, sometimes not visible due to small size, represent standard deviation of the mean.
Aggregation conditions: tau441 at a concentration of 4 μM was incubated in covered black 96-well polystyrene microplates alone or with 50 μM (A,B,C) or 1 mM compound (D), 5 μM ThS, pH 7.4, Tris-HCl (50 mM) containing NaN3 (50 μM), and 1% DMSO. Plates were heated at 37° C. in a Tecan GENios microplate reader. All incubations performed in triplicate. Fluorescence readings: fluorescence measured every 15 min. (λex=450 nm, λem=480 nm) after shaking for 15 sec. and pausing 10 sec. before taking measurement. Values are the mean of three replicates. Error bars, sometimes not visible due to small size, represent standard deviation of the mean.

T1 sequence (P05067 672-711 limits assumed): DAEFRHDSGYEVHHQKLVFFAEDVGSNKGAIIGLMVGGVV
T2 sequence (P05067 672-713 limits assumed): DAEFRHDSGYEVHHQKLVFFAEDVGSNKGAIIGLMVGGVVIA
T3 sequence (P10636 1-441 isoform P10636-8): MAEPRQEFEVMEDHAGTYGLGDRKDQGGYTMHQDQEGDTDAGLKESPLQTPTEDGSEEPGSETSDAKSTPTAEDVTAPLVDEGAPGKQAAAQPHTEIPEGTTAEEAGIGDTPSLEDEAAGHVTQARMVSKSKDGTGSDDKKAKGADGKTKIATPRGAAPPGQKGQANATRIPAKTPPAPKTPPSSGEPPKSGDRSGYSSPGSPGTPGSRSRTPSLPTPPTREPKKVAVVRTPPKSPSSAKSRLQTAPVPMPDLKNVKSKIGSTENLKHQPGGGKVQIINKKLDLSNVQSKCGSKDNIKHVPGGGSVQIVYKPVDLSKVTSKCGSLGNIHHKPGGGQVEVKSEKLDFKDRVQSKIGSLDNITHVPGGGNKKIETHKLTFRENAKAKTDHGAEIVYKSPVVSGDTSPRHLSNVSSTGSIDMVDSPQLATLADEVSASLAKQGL

| inhibition of Aβ1-42 aggregation, as measured by ThT fluorescence [2] | melting point | Structure (SMILES) | further results |
| --- | --- | --- | --- |
| inhibit aggregation | – | B.O=C(O)c1ccc2[nH]cc(-c3c[nH]c4ncccc34)c2c1 [0o, 3-(7-azaindol-3-yl)-indole-5-carboxylic acid.BH3] | inhibition of Aβ1-40 aggregation, as measured by Thioflavin T (ThT) fluorescence [1]: inhibit aggregation |
| inhibition | – | Oc1cccc(Nc2ccc(Nc3cccc(O)c3)nn2)c1 [RS-0406] | – |
| inhibiting aggregation | – | Oc1ccc2cc(-c3cc4ccccc4o3)ccc2c1 [compound 64, 6-Benzofuran-2-yl-naphthalen-2-ol] | – |
| – | 193 to 196 °C | COc1ccc2[nH]cc(-c3c[nH]c4ccc(OC)cc34)c2c1 [0b, 5-methoxy-3-(5-methoxy-indol-3-yl)-indole] | – |
| inhibit aggregation | – | Oc1ccc2[nH]cc(C3CNc4ncccc43)c2c1 (stereo not shown) [0n, 3-(2,3-dihydro-7-azaindol-3-yl)-indol-5-ol] | inhibition of Aβ1-40 aggregation, as measured by Thioflavin T (ThT) fluorescence [1]: inhibit aggregation |
| – | 140 °C (dec.) | CC1(C)CC2(CC(C)(C)c3c2[nH]c2ccc(O)cc32)c2[nH]c3ccc(O)cc3c21 [1j, 3,3,3′,3′-Bis(1,2,3,4-tetrahydro-1,1-dimethylcyclopenta[b]indol-7-ol)] | colour when exposed to light and air [3]: remained a light colour |
| – | 133 to 136 °C | CC(C)(c1c[nH]c2ccc(O)cc12)c1c[nH]c2ccc(O)cc12 [1h, 2,2-Bis-(5-hydroxyindol-3-yl)propane] | colour when exposed to light and air [3]: remained a light colour |
| inhibiting aggregation | – | O=C(O)c1ccc2c(-c3c[nH]c4ccccc34)c[nH]c2c1 [0k, 3-(Indol-3-yl)-indole-6-carboxylic Acid] | – |
| – | – | O=C(O)c1cccnc1 [nicotinic acid] | effect on tau fibrillization (ThS fluorescence) at 1 mM ([4]; tau441 4 μM, 1 mM compound (FIG. 11D)): no effect |
| inhibit aggregation | – | B.COc1ccc2[nH]cc(-c3c[nH]c4ncccc34)c2c1 [10n, 3-(5-methoxyindol-3-yl)-7-azaindole.BH3] | inhibition of Aβ1-40 aggregation, as measured by Thioflavin T (ThT) fluorescence [1]: inhibit aggregation |
| – | 205 °C (dec.) | O=C(O)c1ccc2[nH]cc(CCc3c[nH]c4ccc(Br)cc34)c2c1 [2b, 3-(2-(5-bromo-indol-3-yl)ethyl)-indole-5-carboxylic Acid] | – |
| – | 48 to 50 °C | COc1ccc2c(ccn2Cc2c[nH]c3ccc(OC)cc23)c1 [1d, 5-methoxy-3-((5-methoxy-indol-1-yl)methyl)-indole] | – |
| – | – | O=C(O)c1sc2ccccc2c1-c1cc2ccccc2o1 [compound 83, 3-(Benzofuran-2-yl)-benzothiophene-2-carboxylic Acid] | effect on tau fibrillization (ThS fluorescence) ([4]; tau441 4 or 10 μM, 50 to 100 μM compound, 5 μM ThS, heparin inducer, pH 7.4, 37° C.): Other than 83 in FIG. 10E, all the bi-aromatics tested significantly modulated |
| – | 132 °C (dec.) | CC1(C)CC(C)(c2c[nH]c3ccc(O)cc23)c2[nH]c3ccc(O)cc3c21 (stereo not shown) [1i, 1,2,3,4-Tetrahydro-3-(5-hydroxyindol-3-yl)-1,1,3-trimethylcyclopenta[b]indol-7-ol] | colour when exposed to light and air [3]: remained a light colour |
| – | 82 to 84 °C | c1ccc2c(c1)ccn2Cc1c[nH]c2ccccc12 [1b, 3-((indol-1-yl)methyl)-indole] | – |
| – | – | O=C(O)c1ccc2[nH]c(Cc3ccc(O)cc3)c(Cc3ccc(O)cc3)c2c1 [compound 102, 2,3-bis(4-hydroxybenzyl)-indole-5-carboxylic Acid] | activity against (inhibition of) Aβ1-40 aggregation at 200 μM compound ([1]; 200 μM compound, 20 μM Aβ1-40, kinetic ThT assay (FIG. 1A, 1D)): active |
